“And” between values parts separate entries of the source, which are not always exact repeats. Equal entries are not always repeated.
System: MCF-7 cells
Assay: MCF-7 cell viability, PrestoBlue Cell Viability Reagent
Assay type: cell-based, human
Details: individual ingredients, MCF-7, 2 mg/0.2 ml
Description: In order to assess this activity, a well-established line of breast cancer cells used in cancer research was selected. MCF-7 is a widely studied cancer cell line derived from breast adenocarcinoma, it was proven to be a suitable model cell line for breast cancer investigations worldwide, including those regarding anticancer drugs.
The cells were cultured with growth medium and seeded in two 96 well plates incubated at 37 Celsius. The HCBCP solution was prepared by dissolving the powder in DPBS as per Table 1, below.
The obtained solutions were sterilized by 0.22-micron filtration.
An amount of 0.2 ml was applied in each test tube providing 2 mg of HCBCP. […]
After incubation period of 24 and 48 hours, cell viability was measured using PrestoBlue™ Cell Viability Reagent, according to manufacturer instructions.
Fluorescence was detected at excitation wavelength of 560 nm and an emission of 590 nm, using TECAN SPARK 10M microplate reader, at 24 and 48 hours after application. The fluorescence data is expressed as percentage of cell viability (%) compared to vehicle control.
Percentage of cell viability was calculated using the following formula: [(fluorescence of treated cells—mean background fluorescence)/(fluorescence of cells with vehicle control—mean background fluorescence)]×100, at 24 and 48 Hours after Application. […]

O=c1c(O)c(-c2ccc(O)c(O)c2)oc2cc(O)cc(O)c12 [BF 2 Q, Quercetin] was tested, and the “Mean cell viability (%)” value (24 h (Table 3)) was 42.10% and the “Cell Viability (%)” value (24 h, single replicates (Table 3)) was 44.43% and 44.39% and 40.25% and 39.33%.

From patent US12005092B2, “Herbal composition for breast cancer prevention” (priority 2021, dated 2024)
